From ChEMBL document CHEMBL5518168, “Tumor-homing peptide iRGD-conjugate enhances tumor accumulation of camptothecin for colon cancer therapy” (Eur J Med Chem, 2024)
Active and inactive are the calls of the source. The rule behind the calls is not given here.

How the values were obtained:
[1] = Drug distribution in BALB/c mouse heart xenografted with human A549 cells at 22.23 mg/kg, sc measured after 24 hrs by HPLC analysis; type: ADME, organism-based; details: in vivo
[2] = Drug distribution in BALB/c mouse spleen xenografted with human A549 cells at 22.23 mg/kg, iv measured after 24 hrs by HPLC analysis; type: ADME, organism-based; details: in vivo
[3] = tested on: SW480; assay: Cytotoxicity against human SW480 cells assessed as reduction in cell viability incubated for 48 hrs by MTT assay; type: functional, cell-based; details: SW480, 48 h
[4] = tested on: CCD-18Co; assay: Cytotoxicity against human CCD-18Co cells assessed as reduction in cell viability incubated for 48 hrs by MTT assay; type: toxicity, cell-based
[5] = tested on: SW480; assay: Potency index, ratio of CPT IC50 to test compound IC50 for cytotoxicity against human SW480 cells; type: functional
[6] = Drug distribution in BALB/c mouse tumor xenografted with human A549 cells at 22.23 mg/kg, sc measured after 24 hrs by HPLC analysis; type: ADME, organism-based, Neoplasm; details: in vivo
[7] = Drug distribution in BALB/c mouse heart xenografted with human A549 cells at 22.23 mg/kg, iv measured after 24 hrs by HPLC analysis; type: ADME, organism-based; details: in vivo
[8] = tested on: SW480; assay: Antitumor activity against human SW480 cells xenografted in BALB/c mouse assessed as fold decrease in cell viability by measuring Ki67 positive cells at 0.1 mg/kg, iv administered once every 2 days for 18 days by immunohistochemical analysis relative to control; type: functional; details: time 18 day
[9] = Stability in human plasma assessed as parent compound remaining after 18 hrs by HPLC analysis; type: ADME, cell-free; details: read-out: Stability
[10] = Drug distribution in BALB/c mouse lung xenografted with human A549 cells at 22.23 mg/kg, sc measured after 24 hrs by HPLC analysis; type: ADME, organism-based; details: in vivo
[11] = tested on: SW480; assay: Antitumor activity against human SW480 cells xenografted in BALB/c mouse assessed as tumor burden at 0.1 mg/kg, iv administered once every 2 days for 18 days (reference value: 1.88%); type: functional; details: time 18 day
[12] = tested on: SW480; assay: Antitumor activity against human SW480 cells xenografted in BALB/c mouse assessed as decrease in Ki67 expression at 0.1 mg/kg, iv administered once every 2 days for 18 days by immunohistochemical analysis; type: functional, organism-based; details: time 18.0 day
[13] = tested on: SW480; assay: Antitumor activity against human SW480 cells xenografted in BALB/c mouse assessed as increase in body weight at 0.1 mg/kg, iv administered once every 2 days and measured after 12 days; type: functional, organism-based; details: time 12.0 day
[14] = tested on: SW480; assay: Cytotoxicity against human SW480 cells assessed as cell viability at 25 uM incubated for 48 hrs by MTT assay; type: functional; details: read-out: Activity
[15] = tested on: SW480; assay: Antitumor activity against human SW480 cells xenografted in BALB/c mouse assessed as fold decrease in cell viability by measuring Ki67 positive cells at 0.1 mg/kg, iv administered once every 2 days for 18 days by immunohistochemical analysis relative to CPT; type: functional; details: time 18 day
[16] = tested on: THP-1; assay: Cytotoxicity against human THP-1 cells assessed as reduction in cell viability incubated for 48 hrs by MTT assay; type: toxicity, cell-based; details: thp-1, 48 h
[17] = tested on: HT-29; assay: Cytotoxicity against human HT-29 cells assessed as reduction in cell viability at greater than 0.078 uM incubated for 48 hrs by MTT assay; type: functional, cell-based
[18] = tested on: HT-29; assay: Potency index, ratio of CPT IC50 to test compound IC50 for cytotoxicity against human HT-29 cells; type: functional
[19] = tested on: SW480; assay: Antitumor activity against human SW480 cells xenografted in BALB/c mouse assessed as reduction in tumor volume at 0.1 mg/kg, iv administered once every 2 days and measured on day 18; type: functional; set-up: scale not given: the % may be the effect or the level left; details: time 18 day
[20] = tested on: SW480; assay: Antitumor activity against human SW480 cells xenografted in BALB/c mouse assessed as reduction in tumor volume at 0.1 mg/kg, iv administered once every 2 days and measured on day 8; type: functional, organism-based; details: time 8.0 day
[21] = Stability in human plasma assessed as drug hydrolysis after 5 hrs by HPLC analysis; type: ADME, cell-free; details: read-out: Drug degradation
[22] = Drug uptake in human SW480 cells assessed as increase in blue fluorescence at 30 uM incubated for 1 hr by DRAQ5 staining based confocal microscopy analysis; type: ADME, cell-based; details: sw480, 1 h
[23] = tested on: HT-29; assay: Cytotoxicity against human HT-29 cells assessed as cell viability at 25 uM incubated for 48 hrs by MTT assay; type: functional; details: read-out: Activity
[24] = Drug distribution in BALB/c mouse tumor xenografted with human A549 cells at 22.23 mg/kg, iv measured after 24 hrs by HPLC analysis; type: ADME, organism-based, Neoplasm; details: in vivo
[25] = tested on: SW480; assay: Antitumor activity against human SW480 cells xenografted in BALB/c mouse assessed as tumor growth inhibition at 0.1 mg/kg, iv administered once every 2 days for 18 days; type: functional, organism-based; details: time 18.0 day
[26] = tested on: HT-29; assay: Cytotoxicity against human HT-29 cells assessed as reduction in cell viability at 10 to 50 uM incubated for 48 hrs by MTT assay; type: functional, cell-based; details: dose 10-50 µM
[27] = tested on: HT-29; assay: Cytotoxicity against human HT-29 cells assessed as reduction in cell viability incubated for 48 hrs by MTT assay; type: functional, cell-based; details: HT-29, 48 h
[28] = Stability in human plasma assessed as drug hydrolysis after 15 mins by HPLC analysis; type: ADME, cell-free; details: read-out: Drug degradation
[29] = tested on: SW480; assay: Antitumor activity against human SW480 cells xenografted in BALB/c mouse assessed as tumor inhibition rate at 0.1 mg/kg, iv administered once every 2 days for 18 days; type: functional; set-up: scale not given: the % may be the effect or the level left; details: time 18 day
[30] = Drug distribution in BALB/c mouse spleen xenografted with human A549 cells at 2.5 mg/kg, iv measured after 24 hrs by HPLC analysis; type: ADME, organism-based; details: in vivo
[31] = tested on: SW480; assay: Antitumor activity against human SW480 cells xenografted in BALB/c mouse assessed as tumor burden at 0.019 mg/kg, iv administered once every 2 days for 18 days (reference value: 1.88%); type: functional; details: time 18 day
[32] = Drug distribution in BALB/c mouse heart xenografted with human A549 cells at 2.5 mg/kg, iv measured after 24 hrs by HPLC analysis; type: ADME, organism-based; details: in vivo
[33] = Drug distribution in BALB/c mouse lung xenografted with human A549 cells at 2.5 mg/kg, sc measured after 24 hrs by HPLC analysis; type: ADME, organism-based; details: in vivo
[34] = tested on: SW480; assay: Antitumor activity against human SW480 cells xenografted in BALB/c mouse assessed as increase in body weight at 0.019 mg/kg, iv administered once every 2 days and measured after 12 days; type: functional, organism-based; details: time 12.0 day
[35] = Drug distribution in BALB/c mouse lung xenografted with human A549 cells at 2.5 mg/kg, iv measured after 24 hrs by HPLC analysis; type: ADME, organism-based; details: in vivo
[36] = tested on: SW480; assay: Antitumor activity against human SW480 cells xenografted in BALB/c mouse assessed as reduction in tumor volume at 0.019 mg/kg, iv administered once every 2 days and measured on day 18; type: functional; set-up: scale not given: the % may be the effect or the level left; details: time 18 day
[37] = tested on: SW480; assay: Antitumor activity against human SW480 cells xenografted in BALB/c mouse assessed as tumor inhibition rate at 0.019 mg/kg, iv administered once every 2 days for 18 days; type: functional; set-up: scale not given: the % may be the effect or the level left; details: time 18 day
[38] = Drug distribution in BALB/c mouse heart xenografted with human A549 cells at 2.5 mg/kg, sc measured after 24 hrs by HPLC analysis; type: ADME, organism-based; details: in vivo
[39] = Drug distribution in BALB/c mouse spleen xenografted with human A549 cells at 2.5 mg/kg, sc measured after 24 hrs by HPLC analysis; type: ADME, organism-based; details: in vivo

SMILES: CC[C@@]1(OC(=O)CCCOCCOCCONC(=O)CCN2C(=O)CC(SC[C@H](NC(C)=O)C(=O)N[C@H]3CSSC[C@@H](C(=O)O)NC(=O)[C@H](CC(=O)O)NC(=O)[C@@H]4CCCN4C(=O)CNC(=O)[C@H](CCCCN)NC(=O)[C@H](CC(=O)O)NC(=O)CNC(=O)[C@H](CCCNC(=N)N)NC3=O)C2=O)C(=O)OCc2c1cc1n(c2=O)Cc2cc3ccccc3nc2-1 (stereo partly drawn)
- Drug uptake [1]: Active
- Drug uptake [2]: Active
- IC50 [3]: 320 nM
- Activity [4]: Non-Toxic
- Ratio IC50 [5]: 24
- Drug uptake [6]: Active
- Drug uptake [7]: Active
- fold change (FC) [8]: 10.5
- remaining at 18 h [9]: 76.4%
- Drug uptake [10]: Active
- Activity [11]: 1.44%
- Activity [12]: Active
- Activity [13]: Active
- viability at 25 µM [14]: 22.3%
- fold change (FC) [15]: 6.4
- Activity [16]: Non-Toxic
- Activity [17]: Active
- Ratio IC50 [18]: 6.7
- Activity [19]: 39.7%
- Activity [20]: Active
- metabolised at 5 h [21]: 15.5%
- Drug uptake [22]: Active
- viability at 25 µM [23]: 16.3%
- Drug uptake [24]: Active
- Activity [25]: Active
- Activity [26]: Active
- IC50 [27]: 350 nM
- metabolised at 0.25 h [28]: 1.4%
- Activity [29]: 75%

SMILES: CC[C@@]1(O)C(=O)OCc2c1cc1n(c2=O)Cc2cc3ccccc3nc2-1 [CAMPTOTHECIN]
- Drug uptake [30]: Active
- IC50 [3]: 8560 nM
- Activity [31]: 1.59%
- Drug uptake [32]: Active
- Drug uptake [33]: Active
- viability at 25 µM [14]: 29.5%
- Activity [34]: inactive
- Drug uptake [35]: Active
- Activity [36]: 6.8%
- viability at 25 µM [23]: 32.4%
- Activity [37]: 56%
- IC50 [27]: 2350 nM
- Drug uptake [38]: Active
- Drug uptake [39]: Active
